The values below come from patent publication US20110082133A1, “PYRIDONE COMPOUNDS” (priority 2008, published 2011).

Assay [1] has as its target rat EP4 receptor (Rattus norvegicus, UniProt P43114). As to the kind of experiment: Evaluation test on EP4 receptor affinity in rat ([3H]PGE2 receptor binding test, membrane fraction). Details: expressed in transfected cells; host or cells: HEK293 cells, transient transfection (Lipofectamine 2000); membrane fraction used. Particulars: [3H]PGE2 0.3 nM, membrane fraction of rat EP4 expressing HEK293 cells. Here is the method: A rat EP4 receptor cDNA was subcloned into an expression vector (pcDNA3.1-V5-His-topo, manufactured by Invitrogen Corporation) to prepare a rat EP4 expression vector. HEK293 cells were cultured in a collagen type I-treated 15 cm dish (manufactured by Asahi Techno Glass Co. Ltd.) to a confluence of 70%. An Opti-MEM culture medium at 1.2 mL/dish and a transfection reagent (Lipofectamine 2000, manufactured by Invitrogen Corporation) at 60 μL/dish were mixed, followed by being left to stand at room temperature for 5 minutes. Then, the rat EP4 receptor expression vector at 15 μg/dish was added thereto, followed by being left to stand at room temperature for 30 minutes. The liquid mixture of the transfection reagent was added into the dish, followed by culturing for 20 to 24 hours. The cell culture was carried out in a CO2 incubator (37° C., 5% CO2).
The culture medium was removed by suction, 10 mL of cooled PBS was added thereto per 15 cm dish, and the cells were scraped using a cell scraper. After washed with cooled PBS (1,200 rpm, 4° C., 5 minutes), suspended in 6 mL/dish of cooled 20 mM Tris-HCl (pH 7.4; manufactured by Nacalai Tesque Inc., 5 mM EDTA included) and homogenized using a Polytron, the homogenate was centrifuged (26,000 rpm, 20 minutes, 4° C.). The obtained precipitate was resuspended in cooled 20 mM Tris-HCl and homogenized again using a Polytron, and the homogenate was centrifuged (26,000 rpm, 20 minutes, 4° C.). The obtained precipitate was resuspended in 50 mM HEPES (pH 7.5; manufactured by Dojindo Laboratories) at 1 mL per dish, homogenized using a Polytron, and freeze-stored at −80° C. as a membrane fraction. At this time, a part thereof was used for the measurement of the protein concentration. Measurement of the protein concentration was carried out using a Protein assay stain (manufactured by Bio-Rad Laboratories) in accordance with a standard Protocol as appended in duplicate.
[^3H]PGE2 50 μL (final concentration 0.3 nM; manufactured by Perkin Elmer Co., Ltd.), 100 μL (20 μg/well) of the membrane fraction prepared from the rat EP4 expression cell, and 50 μL of a test compound were mixed in a 96-well microplate (manufactured by Sumitomo Bakelite Co., Ltd.), incubated at room temperature for 1 hour, then filtered by suction on a microplate (UniFilter-96 GF/B, manufactured by Perkin Elmer Co., Ltd.) using a cell harvester (FilterMate Harvester, manufactured by Perkin Elmer Co., Ltd.), and washed three times with 300 μL/well of a cooled assay buffer (50 mM HEPES, 10 mM MgCl2). Dilution of [^3H]PGE2 and the membrane fraction was carried out using the assay buffer, and dilution of the test compound and the unlabeled PGE2 was carried out using dimethyl sulfoxide and the assay buffer. The UniFilter-96 GF/B was treated by preliminarily washing twice with 200 μL/well of the cooled assay buffer. The UniFilter-96 GF/B after filtration was dried in a dryer overnight, 50 μL/well of a liquid scintillation cocktail (MicroScint20, manufactured by Perkin Elmer Co., Ltd.) was added thereto, and the radioactivity was then measured using a liquid scintillation counter for a microplate (TopCount, manufactured by Perkin Elmer Co., Ltd.). For measurement of the non-specific binding, an unlabeled PGE2 (final concentration 1 μM; manufactured by Cayman Chemical Company) was added. All of the measurements were carried out in duplicate, and the specific binding amount was determined by subtracting the non-specific binding amount from the total binding amount.
According to the test method as described above, the rat EP4 receptor affinity (Ki) of the compound of the formula (I) was measured. […] In this connection, Ex means Example Compound number.

In assay [2] the test system is LPS-induced TNF-α production in THP-1 cells. As to the kind of experiment: Inhibitory action on LPS-induced TNF-α production in THP-1 cells. It counts as cell-based. Particulars: Homo sapiens, 3 hours after LPS, ELISA. Here is the method:
Human monocytic cell line THP-1 cells were suspended in an assay medium (PRMI-1640 containing 10% fetal bovine serum, 100 unit/mL penicillin G sodium, and 100 μg/mL streptomycin sulfate), and seeded onto a 96-well plate at 1×10^5 cells/well. 50 μL/well of an assay medium containing a test compound was added thereto, followed by incubation at 37° C. for 30 minutes. Further, 50 μL/well of an assay medium containing 1 to 5 μg/mL of LPS was added thereto, and the TNF-α concentration in the assay medium of each well after 3 hours was measured. The measurement was carried out by means of a standard ELISA method. A 96-well plate which had been coated overnight with an anti-human TNF monoclonal antibody (clone: MAb1) (manufactured by Becton, Dickinson and Company) as a capture antibody was washed with a wash buffer (PBS containing 0.05% Tween-20), and PBS containing 10% fetal bovine serum was incubated at room temperature for 1 hour to perform blocking. After washing with a wash buffer, 100 μL/well of the assay medium to be measured was incubated at 4° C. overnight. As the standard material to be measured, a recombinant human TNF (manufactured by Becton, Dickinson and Company) was used. After washing with a wash buffer, 100 μL of a biotinylated anti-human TNF monoclonal antibody (clone: MAb11) as a detection antibody was treated at room temperature for 1 hour. After washing with a wash buffer, it was treated with 100 μL/well of an HRP-labeled Streptavidin (manufactured by Zymed Laboratories, Inc.) at room temperature for 30 minutes, and washed again. Treatment was conducted using 100 μL/well of a TMB (3,3′,5,5′-tetramethylbenzidine) substrate liquid at room temperature for 20 minutes in a dark room. A 2 M sulfuric acid was added thereto at 50 μL/well to stop the reaction, and an absorbance at 450 nm/570 nm was measured by means of a plate reader SPECRA max (manufactured by Molecular Devices Inc.).

The subject of assay [3] is TNF-α production. As to the kind of experiment: In vivo TNF-α production inhibiting action in rat (LPS-induced plasma TNF-α). The arrangement: species or system SD male rats. Particulars: oral administration 1 hour before LPS (10 μg/kg i.v.), plasma TNF-α 90 minutes after LPS. Here is the method: LPS (10 μg/kg) was administered to caudal veins of SD male rats, and after 90 minutes from the administration, the heparin blood was collected from the abdominal vena cava to prepare a plasma. The test compound was orally administered 1 hour before the administration of LPS. The amount of TNF-α in the plasma was measured using a BD OptEIA rat TNF ELISA set (manufactured by Becton, Dickinson and Company) according to the attached method. The inhibitory rate by the test compound was determined from the amount of TNF-α in plasma in a control group (administered with a solvent).

Chain of rat EP4 receptor (P43114 whole entry): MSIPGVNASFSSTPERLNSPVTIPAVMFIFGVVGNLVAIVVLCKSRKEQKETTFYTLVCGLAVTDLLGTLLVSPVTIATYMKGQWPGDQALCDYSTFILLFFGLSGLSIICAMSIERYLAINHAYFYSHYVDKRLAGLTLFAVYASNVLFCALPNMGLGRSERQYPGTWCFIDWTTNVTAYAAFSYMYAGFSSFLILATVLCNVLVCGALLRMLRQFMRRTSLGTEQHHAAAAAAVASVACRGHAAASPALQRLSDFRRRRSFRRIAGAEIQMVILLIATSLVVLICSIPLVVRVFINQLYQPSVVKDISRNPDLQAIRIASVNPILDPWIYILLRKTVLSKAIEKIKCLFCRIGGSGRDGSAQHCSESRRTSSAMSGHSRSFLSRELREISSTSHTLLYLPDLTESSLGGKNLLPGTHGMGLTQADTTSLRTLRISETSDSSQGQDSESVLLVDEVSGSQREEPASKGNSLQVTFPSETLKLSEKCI

One may read the Ki as the equilibrium dissociation constant of an inhibitor or competing ligand from its target. In assay [1], `CCN(Cc1c(Cl)cc(Cl)c(=O)n1CCc1ccc(C(=O)O)cc1)c1cccc(C(C)C)c1` [Example 123] registered a Ki of 21 nM.

Broadly, the IC50 is the concentration at which inhibition is half-maximal. Higher therefore signals a need for much substance. Broadly, the ED50 is the dose that gives a 50% effect, or the effect in half of the subjects. For `CCC[C@H]1CCCN1Cc1c(Cl)cc(Cl)c(=O)n1CCc1ccc(-c2nnn[nH]2)cc1` [Ex 42], the IC50 in assay [2] stood at 15 nM. This compound had an ED50 in assay [3] of 0.076 mg/kg. Besides, in assay [1], the affinity, expressed as Ki, was 0.52 nM.

With `CCCC[C@H]1CCCN1Cc1c(Cl)cc(Cl)c(=O)n1CCc1ccc(C(=O)O)cc1` [Example 158], the affinity in assay [1], expressed as Ki, was 8.6 nM.

As for `COc1cccc(N(C)Cc2c(Cl)cc(Cl)c(=O)n2CCc2ccc(C(=O)O)cc2)c1` [Example 124], affinity in assay [1] was put at a Ki of 6.2 nM. This Ki and that of the compound before are within 1.5-fold of each other.

For `Cc1cc(C)c(=O)n(CCc2ccc(-c3n[nH]c(=O)o3)cc2)c1CN1CCC[C@@H]1CC(C)C` [Example 345], the IC50 in assay [2] amounted to 13 nM. Besides, the 50% effect level in assay [3] (ED50) was put at a dose of 1.9 mg/kg. The compound further showed a Ki in assay [1] of 2.2 nM.

Compound `Cc1cccc2c1N(Cc1c(Cl)cc(Cl)c(=O)n1CCc1ccc(C(=O)O)cc1)CC2` [Example 139] showed a Ki in assay [1] of 12 nM. In other words, the double-digit nanomolar range.

In assay [1], `Cc1ccc2c(c1)CCCN2Cc1c(Cl)cc(Cl)c(=O)n1CCc1ccc(C(=O)O)cc1` [Example 145] returned a Ki of 19 nM.

In turn, `CN(Cc1c(Cl)cc(Cl)c(=O)n1CCc1ccc(C(=O)O)cc1)c1cccc(OC(F)(F)F)c1` [Ex 19] came in with a Ki in assay [1] of 5.4 nM.

In assay [2], `CCc1cccc2c1N(Cc1c(Cl)cc(Cl)c(=O)n1CCc1ccc(C(=O)O)cc1)CC2` [Example 13] had an IC50 of 7.4 nM. Moreover, the Ki in assay [1] is 24 nM.

Turning to `CN(Cc1c(Cl)cc(Cl)c(=O)n1CCc1ccc(C(=O)O)cc1)c1cccc(F)c1` [Example 122], the affinity in assay [1], expressed as Ki, was 16 nM. This counts as double-digit nanomolar.

For `Cc1cc(C2CC2)c(CN2CCC[C@@H]2CC(C)C)n(CCc2ccc(-c3n[nH]c(=O)o3)cc2)c1=O` [Example 346], the 50% effect level in assay [3] (ED50) was put at a dose of 2 mg/kg. This compound yielded a Ki in assay [1] of 2.8 nM.

For `O=C(O)c1ccc(CCn2c(CN3CCc4ccccc43)c(Cl)cc(Cl)c2=O)cc1` [Example 16, 4-{2-[3,5-dichloro-6-(2,3-dihydro-1H-indol-1-ylmethyl)-2-oxopyridin-1(2H)-yl]ethyl}benzoic acid], in assay [1], the Ki came to 13 nM.

For `CC(C)C[C@H]1CCCN1Cc1c(Cl)cc(Cl)c(=O)n1CCc1ccc(C(=O)O)cc1` [Ex 18], the affinity in assay [1] corresponds to a Ki of 4.4 nM.

`CCc1ccc2c(c1)N(Cc1c(Cl)cc(Cl)c(=O)n1CCc1ccc(C(=O)O)cc1)CC2` [Example 15, 4-(2-{3,5-dichloro-6-[(6-ethyl-2,3-dihydro-1H-indol-1-yl)methyl]-2-oxopyridin-1(2H)-yl}ethyl)benzoic acid] registered a Ki in assay [1] of 3.6 nM.

The compound `CCc1cccc(NCc2c(Cl)cc(Cl)c(=O)n2CCc2ccc(C(=O)O)cc2)c1` [Example 97] registered a Ki in assay [1] of 11 nM.

In assay [1], `CC(C)c1cccc(N(C)Cc2c(Cl)cc(Cl)c(=O)n2CCc2ccc(C(=O)O)cc2)c1` [Example 5, 4-{2-[3,5-dichloro-6-{[(3-isopropylphenyl)(methyl)amino]methyl}-2-oxopyridin-1(2H)-yl]ethyl}benzoic acid] registered a Ki of 4.7 nM.

`O=C(O)c1ccc(CCn2c(CNc3cccc(C(F)(F)F)c3)c(Cl)cc(Cl)c2=O)cc1` [Example 99] registered a Ki in assay [1] of 25 nM. Compared with the last compound, the Ki is about 5.3-fold higher.

In assay [1], `COc1cc(OC)cc(N(C)Cc2c(Cl)cc(Cl)c(=O)n2CCc2ccc(C(=O)O)cc2)c1` [Example 125] had a Ki of 29 nM.

In assay [1], `Cc1cccc(N(C)Cc2c(Cl)cc(Cl)c(=O)n2CCc2ccc(C(=O)O)cc2)c1` [Example 6, 4-{2-[3,5-dichloro-6-{[methyl(3-methylphenyl)amino]methyl}-2-oxopyridin-1(2H)-yl]ethyl}benzoic acid] gave a Ki of 11 nM.

`Cc1c(F)ccc2c1N(Cc1c(Cl)cc(Cl)c(=O)n1CCc1ccc(C(=O)O)cc1)CC2` [Example 149] had an IC50 in assay [2] of 2.8 nM. In addition, in assay [1], the Ki stood at 9.5 nM.

In turn, `Cc1cc(C2CC2)c(CN2CCC[C@@H]2CC(C)C)n(CCc2ccc(C(=O)O)cc2)c1=O` [Ex 27] came in with an IC50 in assay [2] of 12 nM. Further, the Ki in assay [1] was 25 nM.

`COc1ccc2c(c1)N(Cc1c(Cl)cc(Cl)c(=O)n1CCc1ccc(C(=O)O)cc1)CC2` [Example 130] came in with a Ki in assay [1] of 4.1 nM. That is a single-digit nanomolar value.

Consider `O=C(O)c1ccc(CCn2c(CN3CCc4ccc(OC(F)(F)F)cc43)c(Cl)cc(Cl)c2=O)cc1` [Example 152], for which, in assay [1], the Ki is 5.1 nM.

`O=C(O)c1ccc(CCn2c(CN3CCc4ccc(C(F)(F)F)cc43)c(Cl)cc(Cl)c2=O)cc1` [Example 153] registered a Ki in assay [1] of 4.9 nM.

Turning to `CC(C)c1ccc2c(c1)N(Cc1c(Cl)cc(Cl)c(=O)n1CCc1ccc(C(=O)O)cc1)CC2` [Example 143], the affinity in assay [1] corresponds to a Ki of 11 nM.

In turn, `O=C(O)c1ccc(CCn2c(CN3CCc4ccc(Cl)cc43)c(Cl)cc(Cl)c2=O)cc1` [Example 150] registered a Ki in assay [1] of 15 nM. This Ki and that of the compound before are within 1.5-fold of each other.

Turning to `CN(Cc1c(Cl)cc(Cl)c(=O)n1CCc1ccc(C(=O)O)cc1)C1CCCC1` [Ex 26], the IC50 in assay [2] stood at 12 nM.

The compound `COc1cccc2c1N(Cc1c(Cl)cc(Cl)c(=O)n1CCc1ccc(C(=O)O)cc1)CC2` [Example 146] yielded a Ki in assay [1] of 39 nM.

With `CC(C)c1cccc(NCc2c(Cl)cc(Cl)c(=O)n2CCc2ccc(C(=O)O)cc2)c1` [Example 91], in assay [1], the Ki turned out to be 9.8 nM.

`Cc1ccc2c(c1)N(Cc1c(Cl)cc(Cl)c(=O)n1CCc1ccc(C(=O)O)cc1)CC2` [Example 138] came in with a Ki in assay [1] of 7.7 nM.
